Experiments:
[1] = biological target: Focal adhesion kinase 1 (Homo sapiens) (UniProt Q05397); assay: Inhibition of FAK expressed in Escherichia coli or baculovirus-infected insect cells at 400 uM by TR-FRET assay
[2] = biological target: Glycogen synthase kinase-3 beta (Homo sapiens) (UniProt P49841); assay: Inhibition of GSK3-beta expressed in Escherichia coli or baculovirus-infected insect cells using ATP as substrate at 667 uM by fluorescence polarization assay
[3] = biological target: RAC-beta serine/threonine-protein kinase (Homo sapiens) (UniProt P31751); assay: Inhibition of AKT2 expressed in Escherichia coli or baculovirus-infected insect cells using gamma-[33P]ATP at 400 uM by scintillation proximity assay
[4] = biological target: T1, Serine/threonine-protein kinase Sgk1 (Homo sapiens) (UniProt O00141); assay: Inhibition of SGK1 expressed in Escherichia coli or baculovirus-infected insect cells at 400 uM by IMAP assay
T1 sequence (whole entry): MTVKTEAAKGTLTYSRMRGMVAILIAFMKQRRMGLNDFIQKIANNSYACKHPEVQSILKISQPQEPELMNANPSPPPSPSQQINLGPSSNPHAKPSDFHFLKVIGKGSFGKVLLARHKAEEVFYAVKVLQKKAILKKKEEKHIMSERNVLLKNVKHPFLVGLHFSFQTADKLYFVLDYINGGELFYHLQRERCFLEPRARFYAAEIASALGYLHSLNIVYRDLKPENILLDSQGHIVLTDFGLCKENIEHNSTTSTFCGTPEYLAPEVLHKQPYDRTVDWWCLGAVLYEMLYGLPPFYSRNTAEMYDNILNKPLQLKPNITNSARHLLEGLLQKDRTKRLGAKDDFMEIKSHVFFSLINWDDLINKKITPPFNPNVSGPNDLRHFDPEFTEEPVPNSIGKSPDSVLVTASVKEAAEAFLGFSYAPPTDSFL

[5] = biological target: 3-phosphoinositide-dependent protein kinase 1 (Homo sapiens) (UniProt O15530); assay: Inhibition of PDK1 expressed in Escherichia coli or baculovirus-infected insect cells using gamma-[33P]ATP at 400 uM by scintillation proximity assay
[6] = biological target: T2, Tyrosine-protein kinase ITK/TSK (Homo sapiens) (UniProt Q08881); assay: Inhibition of ITK expressed in Escherichia coli or baculovirus-infected insect cells at 667 uM by TR-FRET assay
T2 sequence (whole entry): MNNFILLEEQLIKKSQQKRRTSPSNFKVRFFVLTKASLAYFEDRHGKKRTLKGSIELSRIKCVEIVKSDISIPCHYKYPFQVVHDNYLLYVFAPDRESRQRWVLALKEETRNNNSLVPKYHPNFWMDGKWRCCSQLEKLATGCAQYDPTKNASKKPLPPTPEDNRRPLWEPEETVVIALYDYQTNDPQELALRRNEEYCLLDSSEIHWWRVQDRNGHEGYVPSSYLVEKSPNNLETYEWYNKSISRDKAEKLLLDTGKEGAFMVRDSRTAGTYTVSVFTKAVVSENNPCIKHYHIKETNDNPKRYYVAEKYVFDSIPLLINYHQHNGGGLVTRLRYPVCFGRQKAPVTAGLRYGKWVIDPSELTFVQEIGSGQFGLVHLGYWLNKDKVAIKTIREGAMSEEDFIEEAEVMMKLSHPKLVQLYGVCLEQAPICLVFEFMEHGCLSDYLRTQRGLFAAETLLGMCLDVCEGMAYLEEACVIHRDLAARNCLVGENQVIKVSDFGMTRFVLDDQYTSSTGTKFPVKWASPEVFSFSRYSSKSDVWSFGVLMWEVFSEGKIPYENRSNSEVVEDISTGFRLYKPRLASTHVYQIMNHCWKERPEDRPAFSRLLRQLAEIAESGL

[7] = biological target: Tyrosine-protein kinase Fes/Fps (Homo sapiens) (UniProt P07332); assay: Inhibition of FES expressed in Escherichia coli or baculovirus-infected insect cells using ATP as substrate at 400 uM by fluorescence polarization assay
[8] = biological target: Phosphatidylinositol 4,5-bisphosphate 3-kinase catalytic subunit alpha isoform (Homo sapiens) (UniProt P42336); assay: Inhibition of PI3Kalpha expressed in Escherichia coli or baculovirus-infected insect cells using gamma-[33P]ATP at 400 uM by scintillation proximity assay
[9] = biological target: T3, Tyrosine-protein kinase JAK3 (Homo sapiens) (UniProt P52333); assay: Inhibition of JAK3 expressed in Escherichia coli or baculovirus-infected insect cells at 667 uM by TR-FRET assay
T3 sequence (whole entry): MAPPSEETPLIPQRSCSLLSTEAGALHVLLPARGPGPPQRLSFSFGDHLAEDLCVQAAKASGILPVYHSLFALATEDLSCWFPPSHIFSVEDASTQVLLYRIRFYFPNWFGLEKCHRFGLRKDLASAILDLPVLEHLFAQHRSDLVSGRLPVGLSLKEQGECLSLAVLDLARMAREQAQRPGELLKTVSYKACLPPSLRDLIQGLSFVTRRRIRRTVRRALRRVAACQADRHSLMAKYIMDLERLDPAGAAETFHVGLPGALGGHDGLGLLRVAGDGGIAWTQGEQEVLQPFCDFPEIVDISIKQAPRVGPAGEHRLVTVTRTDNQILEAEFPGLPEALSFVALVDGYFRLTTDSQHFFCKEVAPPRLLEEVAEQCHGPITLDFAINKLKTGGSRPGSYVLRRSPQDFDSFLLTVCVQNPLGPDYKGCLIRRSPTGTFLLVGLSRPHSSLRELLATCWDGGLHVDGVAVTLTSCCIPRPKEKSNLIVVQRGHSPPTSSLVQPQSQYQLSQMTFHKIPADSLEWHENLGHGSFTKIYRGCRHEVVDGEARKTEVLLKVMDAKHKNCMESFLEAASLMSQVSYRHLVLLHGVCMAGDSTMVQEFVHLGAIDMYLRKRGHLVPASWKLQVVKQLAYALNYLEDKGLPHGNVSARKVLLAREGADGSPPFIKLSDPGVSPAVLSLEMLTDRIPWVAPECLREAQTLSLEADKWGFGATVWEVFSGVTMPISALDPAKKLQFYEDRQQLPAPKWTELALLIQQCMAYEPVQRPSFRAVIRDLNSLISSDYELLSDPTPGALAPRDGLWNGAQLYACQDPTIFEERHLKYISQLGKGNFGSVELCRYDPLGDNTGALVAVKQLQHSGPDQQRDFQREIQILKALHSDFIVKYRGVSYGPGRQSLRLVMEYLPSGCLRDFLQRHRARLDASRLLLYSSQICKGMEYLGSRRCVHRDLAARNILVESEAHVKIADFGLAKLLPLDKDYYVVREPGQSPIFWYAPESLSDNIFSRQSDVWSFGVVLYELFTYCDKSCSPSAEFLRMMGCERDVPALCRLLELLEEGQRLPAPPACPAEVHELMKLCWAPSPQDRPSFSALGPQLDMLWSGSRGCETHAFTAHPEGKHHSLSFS

[10] = biological target: Phosphatidylinositol 4,5-bisphosphate 3-kinase catalytic subunit gamma isoform (Homo sapiens) (UniProt P48736); assay: Inhibition of PI3Kgamma expressed in Escherichia coli or baculovirus-infected insect cells at 667 uM by fluorescence polarization assay
Sequence of Phosphatidylinositol 4,5-bisphosphate 3-kinase catalytic subunit gamma isoform (Homo sapiens) (P48736 whole entry, looked up, canonical isoform): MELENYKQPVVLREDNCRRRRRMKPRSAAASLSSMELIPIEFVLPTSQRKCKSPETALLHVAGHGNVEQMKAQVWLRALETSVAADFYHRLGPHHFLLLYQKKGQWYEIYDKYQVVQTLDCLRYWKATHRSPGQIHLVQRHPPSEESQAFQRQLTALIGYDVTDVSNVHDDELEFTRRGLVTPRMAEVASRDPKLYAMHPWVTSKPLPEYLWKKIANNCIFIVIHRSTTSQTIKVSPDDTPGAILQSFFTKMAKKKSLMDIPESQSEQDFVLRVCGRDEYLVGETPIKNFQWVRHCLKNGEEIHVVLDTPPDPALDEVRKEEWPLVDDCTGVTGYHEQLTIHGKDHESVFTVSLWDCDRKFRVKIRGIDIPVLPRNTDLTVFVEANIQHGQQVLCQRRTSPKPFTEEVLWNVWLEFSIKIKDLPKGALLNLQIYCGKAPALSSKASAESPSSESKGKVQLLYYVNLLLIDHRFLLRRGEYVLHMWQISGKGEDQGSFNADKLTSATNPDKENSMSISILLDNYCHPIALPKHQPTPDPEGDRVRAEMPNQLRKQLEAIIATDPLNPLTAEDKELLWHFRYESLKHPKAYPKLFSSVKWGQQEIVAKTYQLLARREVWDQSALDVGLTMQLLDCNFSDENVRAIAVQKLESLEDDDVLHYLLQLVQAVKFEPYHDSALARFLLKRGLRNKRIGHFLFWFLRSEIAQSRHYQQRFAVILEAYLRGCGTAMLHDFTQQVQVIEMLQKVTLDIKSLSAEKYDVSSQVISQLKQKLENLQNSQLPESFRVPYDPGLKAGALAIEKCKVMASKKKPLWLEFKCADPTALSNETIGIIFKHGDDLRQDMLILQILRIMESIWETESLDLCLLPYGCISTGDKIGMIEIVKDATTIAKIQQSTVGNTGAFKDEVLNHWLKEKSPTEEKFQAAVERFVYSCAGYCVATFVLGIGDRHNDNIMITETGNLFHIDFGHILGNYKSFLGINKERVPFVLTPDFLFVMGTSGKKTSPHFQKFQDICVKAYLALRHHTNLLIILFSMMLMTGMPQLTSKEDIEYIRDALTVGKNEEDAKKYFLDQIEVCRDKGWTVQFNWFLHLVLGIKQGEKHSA

Sequence of RAC-beta serine/threonine-protein kinase (Homo sapiens) (P31751 whole entry): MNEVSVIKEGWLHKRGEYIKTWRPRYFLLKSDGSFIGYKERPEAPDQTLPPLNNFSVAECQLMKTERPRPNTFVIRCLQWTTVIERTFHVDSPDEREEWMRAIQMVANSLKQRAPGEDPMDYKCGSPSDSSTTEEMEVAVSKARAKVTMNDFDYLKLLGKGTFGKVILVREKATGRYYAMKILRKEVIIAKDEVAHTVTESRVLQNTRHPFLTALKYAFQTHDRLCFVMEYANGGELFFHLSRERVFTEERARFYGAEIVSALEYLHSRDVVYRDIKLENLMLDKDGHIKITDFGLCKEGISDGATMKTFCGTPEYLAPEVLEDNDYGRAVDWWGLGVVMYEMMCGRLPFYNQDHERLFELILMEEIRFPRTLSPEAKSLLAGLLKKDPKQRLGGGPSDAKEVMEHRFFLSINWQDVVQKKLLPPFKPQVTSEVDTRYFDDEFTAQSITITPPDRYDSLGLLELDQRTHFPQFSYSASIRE
Sequence of Phosphatidylinositol 4,5-bisphosphate 3-kinase catalytic subunit alpha isoform (Homo sapiens) (P42336 whole entry, canonical isoform): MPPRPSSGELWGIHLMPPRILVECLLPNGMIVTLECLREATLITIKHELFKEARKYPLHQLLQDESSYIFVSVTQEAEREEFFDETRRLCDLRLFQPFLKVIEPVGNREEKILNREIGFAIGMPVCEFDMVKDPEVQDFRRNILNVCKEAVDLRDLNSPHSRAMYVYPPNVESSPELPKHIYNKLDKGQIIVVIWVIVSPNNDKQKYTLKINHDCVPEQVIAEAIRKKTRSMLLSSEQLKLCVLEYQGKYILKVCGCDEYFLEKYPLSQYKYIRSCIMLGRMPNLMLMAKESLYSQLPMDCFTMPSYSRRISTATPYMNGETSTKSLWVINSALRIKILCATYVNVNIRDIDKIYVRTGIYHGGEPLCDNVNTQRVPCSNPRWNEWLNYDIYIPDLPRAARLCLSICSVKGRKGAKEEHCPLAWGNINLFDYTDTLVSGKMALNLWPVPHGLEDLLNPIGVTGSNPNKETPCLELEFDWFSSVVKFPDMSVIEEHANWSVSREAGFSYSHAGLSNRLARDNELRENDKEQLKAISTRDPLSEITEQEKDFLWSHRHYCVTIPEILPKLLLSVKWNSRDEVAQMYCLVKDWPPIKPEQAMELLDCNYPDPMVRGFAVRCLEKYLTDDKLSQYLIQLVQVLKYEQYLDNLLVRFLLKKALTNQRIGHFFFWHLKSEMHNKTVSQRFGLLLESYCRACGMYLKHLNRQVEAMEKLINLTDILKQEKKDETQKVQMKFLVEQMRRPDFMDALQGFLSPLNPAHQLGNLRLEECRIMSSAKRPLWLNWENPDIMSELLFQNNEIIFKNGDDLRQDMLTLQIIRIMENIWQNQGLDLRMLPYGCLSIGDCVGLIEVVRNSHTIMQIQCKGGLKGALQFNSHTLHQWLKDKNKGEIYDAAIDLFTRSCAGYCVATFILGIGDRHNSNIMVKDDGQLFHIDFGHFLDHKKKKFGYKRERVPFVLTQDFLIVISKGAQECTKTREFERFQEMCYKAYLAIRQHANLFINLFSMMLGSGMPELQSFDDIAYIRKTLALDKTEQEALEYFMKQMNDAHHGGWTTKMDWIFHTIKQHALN
Sequence of Tyrosine-protein kinase Fes/Fps (Homo sapiens) (P07332 whole entry, canonical isoform): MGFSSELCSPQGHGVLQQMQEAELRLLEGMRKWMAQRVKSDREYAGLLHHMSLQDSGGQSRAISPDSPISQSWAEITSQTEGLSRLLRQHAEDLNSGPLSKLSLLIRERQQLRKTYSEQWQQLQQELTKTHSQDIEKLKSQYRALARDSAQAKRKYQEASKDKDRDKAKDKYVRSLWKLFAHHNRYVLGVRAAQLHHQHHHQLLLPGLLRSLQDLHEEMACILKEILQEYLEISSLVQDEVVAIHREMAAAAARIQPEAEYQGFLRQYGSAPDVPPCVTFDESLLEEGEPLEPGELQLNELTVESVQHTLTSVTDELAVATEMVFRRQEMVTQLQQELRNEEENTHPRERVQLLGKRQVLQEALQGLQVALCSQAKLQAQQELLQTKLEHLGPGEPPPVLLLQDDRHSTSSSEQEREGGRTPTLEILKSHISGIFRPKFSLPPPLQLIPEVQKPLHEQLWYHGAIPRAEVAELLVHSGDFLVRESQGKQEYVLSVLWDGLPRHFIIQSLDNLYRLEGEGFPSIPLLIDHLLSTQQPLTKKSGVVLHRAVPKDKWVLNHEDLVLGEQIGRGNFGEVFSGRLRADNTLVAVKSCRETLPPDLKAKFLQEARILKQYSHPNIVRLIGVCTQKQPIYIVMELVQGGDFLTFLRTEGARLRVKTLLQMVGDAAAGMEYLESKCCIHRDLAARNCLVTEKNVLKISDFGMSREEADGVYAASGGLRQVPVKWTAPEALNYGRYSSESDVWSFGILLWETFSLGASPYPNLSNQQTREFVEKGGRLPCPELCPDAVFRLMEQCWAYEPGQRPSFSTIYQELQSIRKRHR
Sequence of Focal adhesion kinase 1 (Homo sapiens) (Q05397 2-1052 limits assumed): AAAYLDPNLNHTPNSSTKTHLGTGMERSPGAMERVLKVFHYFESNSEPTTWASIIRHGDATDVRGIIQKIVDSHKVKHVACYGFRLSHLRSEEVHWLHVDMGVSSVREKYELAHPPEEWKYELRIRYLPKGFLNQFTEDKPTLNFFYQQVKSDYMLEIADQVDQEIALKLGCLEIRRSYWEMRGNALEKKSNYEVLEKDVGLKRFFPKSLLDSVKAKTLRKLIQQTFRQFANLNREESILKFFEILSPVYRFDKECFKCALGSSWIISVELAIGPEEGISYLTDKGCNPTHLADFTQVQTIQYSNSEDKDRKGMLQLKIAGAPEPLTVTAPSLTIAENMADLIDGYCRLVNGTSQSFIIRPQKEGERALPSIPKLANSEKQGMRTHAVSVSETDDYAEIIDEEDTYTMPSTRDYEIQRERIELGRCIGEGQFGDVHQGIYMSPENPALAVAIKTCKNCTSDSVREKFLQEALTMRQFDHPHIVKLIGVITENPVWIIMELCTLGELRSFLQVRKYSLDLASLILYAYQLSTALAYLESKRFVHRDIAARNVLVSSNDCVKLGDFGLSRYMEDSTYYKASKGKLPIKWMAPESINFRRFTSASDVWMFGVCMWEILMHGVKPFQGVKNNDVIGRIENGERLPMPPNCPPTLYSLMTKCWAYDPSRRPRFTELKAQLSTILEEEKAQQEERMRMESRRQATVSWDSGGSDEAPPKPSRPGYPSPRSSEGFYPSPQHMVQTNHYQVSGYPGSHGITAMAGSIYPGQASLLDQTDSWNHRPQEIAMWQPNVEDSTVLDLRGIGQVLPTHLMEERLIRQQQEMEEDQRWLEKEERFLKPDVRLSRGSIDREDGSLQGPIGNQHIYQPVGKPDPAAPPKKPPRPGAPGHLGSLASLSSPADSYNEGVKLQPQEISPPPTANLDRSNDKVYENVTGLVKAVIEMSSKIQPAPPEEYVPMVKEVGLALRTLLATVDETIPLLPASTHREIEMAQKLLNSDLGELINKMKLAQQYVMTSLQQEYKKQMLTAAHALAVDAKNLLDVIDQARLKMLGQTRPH
Sequence of Glycogen synthase kinase-3 beta (Homo sapiens) (P49841 whole entry, looked up): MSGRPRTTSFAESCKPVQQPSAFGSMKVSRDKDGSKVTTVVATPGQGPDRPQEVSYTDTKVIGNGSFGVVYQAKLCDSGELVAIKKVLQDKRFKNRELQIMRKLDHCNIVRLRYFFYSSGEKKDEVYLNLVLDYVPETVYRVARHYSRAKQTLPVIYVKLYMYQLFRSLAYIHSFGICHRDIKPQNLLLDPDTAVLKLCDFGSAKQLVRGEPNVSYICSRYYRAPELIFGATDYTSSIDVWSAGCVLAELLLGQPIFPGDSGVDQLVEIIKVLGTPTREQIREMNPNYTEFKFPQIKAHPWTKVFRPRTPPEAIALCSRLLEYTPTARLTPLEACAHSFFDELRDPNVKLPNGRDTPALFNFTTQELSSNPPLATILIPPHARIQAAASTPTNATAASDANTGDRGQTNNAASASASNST

| Compound | inhibition [1] [%] | inhibition [2] [%] | inhibition [3] [%] | inhibition [4] [%] | inhibition [5] [%] | inhibition [6] [%] | inhibition [7] [%] | inhibition [8] [%] | inhibition [9] [%] | inhibition [10] [%] |
| --- | --- | --- | --- | --- | --- | --- | --- | --- | --- | --- |
| Nc1n[nH]c2ncccc12 | 7 | 59 | 14 | 63 | 40 | 39 | 12 | 29 | 54 | 20 |
| CC(C)(C)c1cc(NC(=O)Nc2ccccc2)no1 | 3 | 19 | 15 | 10 | 25 | 0 | 3 | 40 | 0 | 9 |
| c1n[nH]c2c1CCCC2 | 1 | 41 | 13 | 27 | – | 24 | 14 | 24 | 5 | 13 |
| Cc1ccc(NC(=O)Nc2cc(C(C)(C)C)nn2-c2ccccc2)cc1 | 6 | 34 | 12 | 7 | 15 | 30 | 3 | 27 | 0 | 2 |
| Nc1[nH]nc2ccccc12 | 13 | 34 | 16 | 97 | 53 | 41 | 11 | 22 | 72 | 10 |
| c1ccc(-c2cnc3nccnn23)cc1 | 0 | 19 | 8 | 0 | 2 | 6 | 70 | 46 | 0 | 92 |
| Nc1[nH]cnc2ncnc1-2 | 5 | 57 | 7 | 76 | 77 | 87 | 20 | 45 | 78 | 66 |
| O=C(Nc1ccccc1)Nc1ccccc1 | 30 | 11 | 16 | 15 | 20 | 0 | 13 | 11 | 0 | 9 |
| O=C(Nc1ccccc1)Nc1cccc(C(F)(F)F)c1 | 6 | 19 | 6 | 8 | 8 | 0 | 6 | 10 | 0 | 7 |
